Common to all, as to type: biochemical
The target in one assay is PKR R532W (Homo sapiens, UniProt P30613, R532W). As to the kind of experiment: PKR mutant assay, PKR R532W AC50. As to conditions: mutant PKR R532W enzyme. Here is the method: (§1) • PKR or PKR mutant enzyme solution was diluted in assay buffer. • 2 μL of test compound was added into wells first, and then 180 μL reaction mix was added. • Reactions mixture with test compound was assembled except for ADP, and plates were stored for 60 minutes at room temperature. • 20 uL ADP was added to start reaction at room temperature and reaction progress was measured as changes in absorbance at 340 nm wavelength at room temperature.
Sequence of PKR R532W (P30613 whole entry R532W): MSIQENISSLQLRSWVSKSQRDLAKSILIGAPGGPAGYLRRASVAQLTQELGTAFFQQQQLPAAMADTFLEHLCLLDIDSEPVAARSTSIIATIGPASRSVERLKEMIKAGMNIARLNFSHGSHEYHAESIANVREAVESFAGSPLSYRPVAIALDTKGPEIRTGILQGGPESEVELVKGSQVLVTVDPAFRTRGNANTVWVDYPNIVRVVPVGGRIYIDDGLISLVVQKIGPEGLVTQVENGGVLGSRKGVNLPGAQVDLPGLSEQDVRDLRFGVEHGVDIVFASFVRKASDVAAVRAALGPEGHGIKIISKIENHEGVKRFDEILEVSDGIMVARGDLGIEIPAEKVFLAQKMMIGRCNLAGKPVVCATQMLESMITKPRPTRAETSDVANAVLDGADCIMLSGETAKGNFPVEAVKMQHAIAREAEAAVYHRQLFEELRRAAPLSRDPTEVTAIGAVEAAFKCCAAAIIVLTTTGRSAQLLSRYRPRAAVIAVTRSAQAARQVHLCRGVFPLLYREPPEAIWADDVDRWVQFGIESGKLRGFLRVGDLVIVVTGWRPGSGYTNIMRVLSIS
(§2) Test Compound Preparation: • Test compound stock was made at 100x concentration in 100% DMSO (10 mM) • 1 to 3 dilutions were made for 11 points (i.e. 50 μl of first concentration added to 100 μl 100% DMSO to yield 3.33 mM, 50 μl of this added to 100 μl DMSO to yield 1.11 mM, and so forth) • 1 to 100 dilution into assay (2 μl in 200 μl) yielded starting concentration of 100 μM, decreasing 3 fold for 11 points • Assay Buffer: 100 mM KCl, 50 mM Tris 7.5, 5 mM MgCl2, 1 mM DTT, 0.03% BSA • Reaction Mixture: PKR mutant enzyme: 80-400 ng/well; ADP: 0.22-1.65 mM; PEP: 0.1-0.5 mM; NADH:180 uM; LDH: 0.5 units (Sigma#59023); DTT: 1 mM; BSA: 0.03%.
(§3) A compound described herein was diluted with DMSO and tested at 1 μM concentration. The enzyme was diluted in 1× Buffer: (100 mM KCl, 50 mM Tris 7.5, 5 mM MgCl2, 1 mM DTT, 0.03% BSA). 2 μL of compound solution was first added into wells, and then 180 μL of enzyme solution was added. Assays were assembled except for ADP, and plates were stored for 60 minutes at RT. 20 μL ADP was added to start the assay and assay output was evaluated using OD340 at SpectraMax. The assay was run at room temperature. • Final concentration: PKR R532W (100 ng/well), Tris pH 7.5 (50 mM), KCl (100 mM), MgCl2 (5 mM), ADP (0.36 mM), PEP (0.1 mM), NADH (180 μM), LDH (0.5 units, Sigma 59023), DTT (1 mM) and BSA (0.03%).

For another assay, the target named is PKR WT (Homo sapiens, UniProt P30613). As to the kind of experiment: PKR WT enzymatic assay AC50. As to conditions: wild type PKR. Here is the method: as §1, §2
Sequence of PKR WT (P30613 whole entry): as the sequence (P30613 whole entry R532W) above, with W532R counted along it
as §3, with “wt” for “R532W”, “(0.48” for “(0.36”, “(0.15” for “(0.1”

A further assay addresses PKR R510Q (Homo sapiens, UniProt P30613, R510Q). The experiment in a line: PKR mutant assay, PKR R510Q AC50. As to conditions: mutant PKR R510Q enzyme. How it is done:
as §1
as §2, with “0.03%. […]” for “0.03%.”

Sequence of PKR R510Q (P30613 whole entry R510Q): as the sequence (P30613 whole entry R532W) above, with R510Q, W532R counted along it

Take `O=C(c1ccc(NS(=O)(=O)c2cccc3cccnc23)cc1)N1CC(O)(c2cccnc2F)C1` [Compound 18, N-(4-(3-(2-fluoropyridin-3-yl)-3-hydroxyazetidine-1-carbonyl)phenyl)quinoline-8-sulfonamide]: the AC50 (in general, the concentration giving half of the maximal activity seen) on PKR R532W lay within 101 to 1000 nM; on PKR WT, 101 to 1000 nM; on PKR R510Q, 1.01 to 10 µM.
For `Cc1cccnc1C1(O)CN(C(=O)c2ccc(NS(=O)(=O)c3cccc4cccnc34)cc2)C1` [Compound 59], at PKR R510Q, the AC50 is > 10 µM.
For `O=C(c1ccc(NS(=O)(=O)c2cccc3cccnc23)cc1)N1CC(O)(c2ccccc2F)C1` [Compound 3, N-(4-(3-(2-fluorophenyl)-3-hydroxyazetidine-1-carbonyl)phenyl)quinoline-8-sulfonamide], the figures for the AC50 on PKR R532W, on PKR WT and at PKR R510Q were 101 to 1000 nM, 101 to 1000 nM and 1.01 to 10 µM, respectively.
As to `O=C(c1ccc(NS(=O)(=O)c2cccc3cccnc23)cc1)N1CC(O)(c2ncccc2F)C1` [Compound 22, N-(4-(3-(3-fluoropyridin-2-yl)-3-hydroxyazetidine-1-carbonyl)phenyl)quinoline-8-sulfonamide], the AC50 lay within 101 to 1000 nM at PKR R532W, 101 to 1000 nM at PKR WT and 1.01 to 10 µM at PKR R510Q.
For the compound `O=C(c1ccc(NS(=O)(=O)c2cccc3cccnc23)cc1)N1CC(O)(c2ccccc2C(F)(F)F)C1` [Compound 6, N-(4-(3-hydroxy-3-(2-(trifluoromethyl)phenyl)azetidine-1-carbonyl)phenyl)quinoline-8-sulfonamide], the AC50 on PKR R532W lay in the range of 101 to 1000 nM; at PKR WT, 101 to 1000 nM; at PKR R510Q it was 0.101 to 1 µM.
For `CCCC1(O)CN(C(=O)c2ccc(NS(=O)(=O)c3cccc4cccnc34)cc2)C1` [Compound 36, N-(4-(3-hydroxy-3-propylazetidine-1-carbonyl)phenyl)quinoline-8-sulfonamide], the AC50 on PKR R532W was 1010 to 10000 nM; on PKR WT, 101 to 1000 nM; on PKR R510Q it was > 10 µM.
The corresponding values for `O=C(c1ccc(NS(=O)(=O)c2cccc3cnccc23)cc1)N1CC(O)(c2cccc(C(F)(F)F)c2)C1` [Compound 43, N-(4-(3-hydroxy-3-(3-(trifluoromethyl)phenyl)azetidine-1-carbonyl)phenyl)isoquinoline-5-sulfonamide] are 1010 to 10000 nM, 1010 to 10000 nM and > 10 µM.
As for `CC(O)CC1(O)CN(C(=O)c2ccc(NS(=O)(=O)c3cccc4cccnc34)cc2)C1` (stereo not shown) [Compound 41, N-(4-(3-hydroxy-3-(2-hydroxypropyl)azetidine-1-carbonyl)phenyl)quinoline-8-sulfonamide], the AC50 at PKR R532W is 1010 to 10000 nM; on PKR WT it was 1010 to 10000 nM; at PKR R510Q, > 10 µM.
Regarding `COc1cccnc1C1(O)CN(C(=O)c2ccc(NS(=O)(=O)c3cccc4cccnc34)cc2)C1` [Compound 21, N-(4-(3-hydroxy-3-(3-methoxypyridin-2-yl)azetidine-1-carbonyl)phenyl)quinoline-8-sulfonamide], the results for the AC50 on PKR WT and on PKR R510Q were 1010 to 10000 nM and 1.01 to 10 µM, respectively.
On to `CC(C)(C)C1(O)CN(C(=O)c2ccc(NS(=O)(=O)c3cccc4cccnc34)cc2)C1` [Compound 31, N-(4-(3-(tert-butyl)-3-hydroxyazetidine-1-carbonyl)phenyl)quinoline-8-sulfonamide], for which the AC50 was 1010 to 10000 nM on PKR R532W, 1010 to 10000 nM on PKR WT and > 10 µM at PKR R510Q.
In the case of `O=C(c1ccc(NS(=O)(=O)c2ccc(F)cc2F)cc1)N1CC(O)(c2cccc(C(F)(F)F)c2)C1` [Compound 42, 2,4-difluoro-N-(4-(3-hydroxy-3-(3-(trifluoromethyl)phenyl)azetidine-1-carbonyl)phenyl)benzenesulfonamide], the results for the AC50 at PKR R532W, on PKR WT and at PKR R510Q were > 10000 nM, > 10000 nM and > 10 µM, respectively.
In the case of `O=C(c1ccc(NS(=O)(=O)c2cccc3cccnc23)cc1)N1CC(O)(c2ncccc2C(F)(F)F)C1` [Compound 24, N-(4-(3-hydroxy-3-(3-(trifluoromethyl)pyridin-2-yl)azetidine-1-carbonyl)phenyl)quinoline-8-sulfonamide], the AC50 on PKR WT fell in the range of 101 to 1000 nM; at PKR R510Q it was 1.01 to 10 µM.
Consider `O=C(c1ccc(NS(=O)(=O)c2cccc3cccnc23)cc1)N1CC(O)(CCCO)C1` [Compound 40, N-(4-(3-hydroxy-3-(3-hydroxypropyl)azetidine-1-carbonyl)phenyl)quinoline-8-sulfonamide], for which the AC50 at PKR R532W was 1010 to 10000 nM; on PKR WT, 1010 to 10000 nM; at PKR R510Q it was > 10 µM.
Turning to `CC(O)C1(O)CN(C(=O)c2ccc(NS(=O)(=O)c3cccc4cccnc34)cc2)C1` (stereo not shown) [Compound 39, N-(4-(3-hydroxy-3-(1-hydroxyethyl)azetidine-1-carbonyl)phenyl)quinoline-8-sulfonamide], the values for the AC50 at PKR R532W, on PKR WT and on PKR R510Q were > 10000 nM, > 10000 nM and > 10 µM, respectively.
Take `O=C(c1ccc(NS(=O)(=O)c2cccc3cccnc23)cc1)N1CC(O)(c2ncccc2OC(F)F)C1` [Compound 25, N-(4-(3-(3-(difluoromethoxy)pyridin-2-yl)-3-hydroxyazetidine-1-carbonyl)phenyl)quinoline-8-sulfonamide]: the AC50 on PKR WT lay in the range of 101 to 1000 nM; on PKR R510Q it was 1.01 to 10 µM.
As to `O=C(c1ccc(NS(=O)(=O)c2ccccc2Cl)cc1)N1CC(O)(Cc2ccccc2)C1` [Compound 49, N-(4-(3-benzyl-3-hydroxyazetidine-1-carbonyl)phenyl)-2-chlorobenzenesulfonamide], the AC50 was 1010 to 10000 nM at PKR R532W, 1010 to 10000 nM on PKR WT and > 10 µM at PKR R510Q.
For `O=C(c1ccc(NS(=O)(=O)c2cccc3cccnc23)cc1)N1CC(O)(Cc2cccc(F)n2)C1` [Compound 54, N-(4-(3-((6-fluoropyridin-2-yl)methyl)-3-hydroxyazetidine-1-carbonyl)phenyl)quinoline-8-sulfonamide], the AC50 at PKR R532W fell in the range of 101 to 1000 nM; at PKR WT it was 101 to 1000 nM; at PKR R510Q it was 1.01 to 10 µM.
As for `O=C(c1ccc(NS(=O)(=O)c2ccc(C(F)(F)F)cc2)cc1)N1CC(O)(Cc2ccccc2)C1` [Compound 50, N-(4-(3-benzyl-3-hydroxyazetidine-1-carbonyl)phenyl)-4-(trifluoromethyl)benzenesulfonamide], the AC50 on PKR R532W was > 10000 nM.
Turning to `O=C(c1ccc(NS(=O)(=O)c2cccc3cccnc23)cc1)N1CC(O)(c2ncccc2Cl)C1` [Compound 23, N-(4-(3-(3-chloropyridin-2-yl)-3-hydroxyazetidine-1-carbonyl)phenyl)quinoline-8-sulfonamide], the AC50 at PKR WT is 1010 to 10000 nM; on PKR R510Q it was > 10 µM.
For `CN1C(=O)Cc2cc(S(=O)(=O)Nc3ccc(C(=O)N4CC(O)(Cc5ccccc5)C4)cc3)ccc21` [Compound 66], the AC50 on PKR R532W and on PKR WT was > 10000 nM throughout.
`O=C(c1ccc(NS(=O)(=O)c2cccc3cnccc23)cc1)N1CC(O)(Cc2ccccc2)C1` [Compound 48, N-(4-(3-benzyl-3-hydroxyazetidine-1-carbonyl)phenyl)isoquinoline-5-sulfonamide]: the AC50 at PKR R532W and on PKR WT was > 10000 nM throughout.
With `O=C(c1ccc(NS(=O)(=O)c2ccc(OC(F)(F)F)cc2)cc1)N1CC(O)(Cc2ccccc2)C1` [Compound 65], the AC50 at PKR R532W and at PKR WT was > 10000 nM throughout.

The values above are taken from patent US9458132B2, “Therapeutic compounds and compositions and their use as PKM2 modulators” (AGIOS PHARMACEUTICALS, INC., priority 2012, dated 2016).
